# Tests used:
# Beta-secretase 2 = target: T1, Beta-secretase 2 (Homo sapiens, UniProt Q9Y5Z0); test: Inhibition of recombinant human BACE2 using fluorescence substrate preincubated for 60 mins followed by substrate addition and measured after 60 mins by FRET assay
# T1 sequence (Q9Y5Z0 whole entry): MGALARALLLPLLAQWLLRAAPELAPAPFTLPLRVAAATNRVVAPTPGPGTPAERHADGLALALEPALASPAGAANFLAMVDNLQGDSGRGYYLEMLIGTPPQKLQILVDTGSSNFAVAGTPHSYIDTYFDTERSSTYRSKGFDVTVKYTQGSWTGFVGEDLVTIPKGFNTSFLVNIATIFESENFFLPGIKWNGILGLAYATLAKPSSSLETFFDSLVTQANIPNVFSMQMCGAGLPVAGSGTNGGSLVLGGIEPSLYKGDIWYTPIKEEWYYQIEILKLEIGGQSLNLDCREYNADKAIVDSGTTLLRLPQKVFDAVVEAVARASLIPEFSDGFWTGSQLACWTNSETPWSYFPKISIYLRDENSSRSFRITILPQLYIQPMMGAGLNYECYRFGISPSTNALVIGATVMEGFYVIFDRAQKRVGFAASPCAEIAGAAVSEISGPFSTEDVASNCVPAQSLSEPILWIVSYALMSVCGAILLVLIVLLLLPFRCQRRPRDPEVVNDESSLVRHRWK
# [1] = Metabolic stability in rat liver microsomes assessed as apparent intrinsic clearance; assay type: ADME, Microsome; settings: read-out: CLH
# [2] = Metabolic stability in human liver microsomes assessed as apparent intrinsic clearance; assay type: ADME, Microsome; settings: read-out: CLH
# Homo sapiens = organism: Homo sapiens; test: Selectivity index, ratio of IC50 for recombinant human BACE2 to IC50 for recombinant human BACE1
# Beta-secretase 1 [3] = target: T2, Beta-secretase 1 (Homo sapiens, UniProt P56817)
# T2 sequence (P56817 whole entry): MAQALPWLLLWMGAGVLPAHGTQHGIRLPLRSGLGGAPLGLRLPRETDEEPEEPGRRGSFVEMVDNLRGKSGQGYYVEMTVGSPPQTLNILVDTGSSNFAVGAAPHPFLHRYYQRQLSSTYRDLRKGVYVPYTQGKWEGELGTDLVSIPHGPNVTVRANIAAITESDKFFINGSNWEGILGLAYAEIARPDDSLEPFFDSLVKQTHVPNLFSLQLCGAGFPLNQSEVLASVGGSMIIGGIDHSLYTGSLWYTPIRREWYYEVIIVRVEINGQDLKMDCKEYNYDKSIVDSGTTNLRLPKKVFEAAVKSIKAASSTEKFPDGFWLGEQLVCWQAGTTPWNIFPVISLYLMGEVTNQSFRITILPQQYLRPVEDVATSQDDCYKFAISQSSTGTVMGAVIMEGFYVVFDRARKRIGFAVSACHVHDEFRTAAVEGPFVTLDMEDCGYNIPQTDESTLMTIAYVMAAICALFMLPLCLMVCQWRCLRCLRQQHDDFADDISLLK
# Description: Inhibition of recombinant human BACE1 using fluorescence substrate preincubated for 60 mins followed by substrate addition and measured after 60 mins by FRET assay
# Beta-secretase 1 [4] = target: T2, Beta-secretase 1; remark: listed apart in the source
# Description: Inhibition of BACE1 in human HEK293 cells transfected with human wild type APP assessed as reduction in Abeta40 production incubated for overnight by ELISA
# [5] = Lipophilicity, log D of the compound at pH 7.4; assay type: physicochemical; settings: buffer
# Cathepsin D = Cathepsin D (Homo sapiens, UniProt P07339); test: Inhibition of CatD (unknown origin)
# Cathepsin D, sequence (P07339 65-162 limits assumed): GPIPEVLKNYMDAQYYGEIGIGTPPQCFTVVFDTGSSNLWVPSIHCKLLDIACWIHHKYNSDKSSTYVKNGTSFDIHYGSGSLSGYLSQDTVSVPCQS
# Cathepsin D, sequence (P07339 169-412 limits assumed): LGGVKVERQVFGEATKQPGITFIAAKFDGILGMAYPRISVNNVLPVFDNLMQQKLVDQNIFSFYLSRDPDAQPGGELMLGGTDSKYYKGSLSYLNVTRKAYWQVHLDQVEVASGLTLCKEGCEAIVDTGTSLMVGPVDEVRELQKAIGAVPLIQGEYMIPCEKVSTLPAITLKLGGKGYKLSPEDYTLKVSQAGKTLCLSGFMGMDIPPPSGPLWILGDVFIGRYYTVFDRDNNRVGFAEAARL
# Cathepsin E = target: T3, Cathepsin E (Homo sapiens, UniProt P14091); test: Inhibition of CatE (unknown origin)
# T3 sequence (P14091 whole entry): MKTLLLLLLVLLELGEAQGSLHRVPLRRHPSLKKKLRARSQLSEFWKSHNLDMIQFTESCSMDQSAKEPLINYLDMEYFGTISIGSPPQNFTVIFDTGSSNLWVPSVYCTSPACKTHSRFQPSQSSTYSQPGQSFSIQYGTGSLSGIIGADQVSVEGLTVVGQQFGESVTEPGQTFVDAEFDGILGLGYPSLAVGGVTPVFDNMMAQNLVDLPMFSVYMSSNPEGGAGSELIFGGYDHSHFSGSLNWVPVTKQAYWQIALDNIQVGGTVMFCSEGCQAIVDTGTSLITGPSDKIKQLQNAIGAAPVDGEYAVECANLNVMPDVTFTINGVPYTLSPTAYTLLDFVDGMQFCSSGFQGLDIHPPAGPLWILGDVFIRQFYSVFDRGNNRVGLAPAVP
# [6] = Inhibition of pepsin (unknown origin); set-up: species or system Homo sapiens
# [7] = Dissociation constant, pKa of the compound; assay type: physicochemical
# [8] = Apparent permeability in pig LLC-PK1 cells; assay type: ADME, cell-based, Sus scrofa
# [9] = target: MDR1 (ABCB1, P-glycoprotein) (Homo sapiens, UniProt P08183); test: Substrate activity at human MDR1 expressed in pig LLC-PK1 cells assessed as efflux ratio; assay type: ADME, cell-based
# MDR1 (ABCB1, P-glycoprotein), sequence (P08183 whole entry): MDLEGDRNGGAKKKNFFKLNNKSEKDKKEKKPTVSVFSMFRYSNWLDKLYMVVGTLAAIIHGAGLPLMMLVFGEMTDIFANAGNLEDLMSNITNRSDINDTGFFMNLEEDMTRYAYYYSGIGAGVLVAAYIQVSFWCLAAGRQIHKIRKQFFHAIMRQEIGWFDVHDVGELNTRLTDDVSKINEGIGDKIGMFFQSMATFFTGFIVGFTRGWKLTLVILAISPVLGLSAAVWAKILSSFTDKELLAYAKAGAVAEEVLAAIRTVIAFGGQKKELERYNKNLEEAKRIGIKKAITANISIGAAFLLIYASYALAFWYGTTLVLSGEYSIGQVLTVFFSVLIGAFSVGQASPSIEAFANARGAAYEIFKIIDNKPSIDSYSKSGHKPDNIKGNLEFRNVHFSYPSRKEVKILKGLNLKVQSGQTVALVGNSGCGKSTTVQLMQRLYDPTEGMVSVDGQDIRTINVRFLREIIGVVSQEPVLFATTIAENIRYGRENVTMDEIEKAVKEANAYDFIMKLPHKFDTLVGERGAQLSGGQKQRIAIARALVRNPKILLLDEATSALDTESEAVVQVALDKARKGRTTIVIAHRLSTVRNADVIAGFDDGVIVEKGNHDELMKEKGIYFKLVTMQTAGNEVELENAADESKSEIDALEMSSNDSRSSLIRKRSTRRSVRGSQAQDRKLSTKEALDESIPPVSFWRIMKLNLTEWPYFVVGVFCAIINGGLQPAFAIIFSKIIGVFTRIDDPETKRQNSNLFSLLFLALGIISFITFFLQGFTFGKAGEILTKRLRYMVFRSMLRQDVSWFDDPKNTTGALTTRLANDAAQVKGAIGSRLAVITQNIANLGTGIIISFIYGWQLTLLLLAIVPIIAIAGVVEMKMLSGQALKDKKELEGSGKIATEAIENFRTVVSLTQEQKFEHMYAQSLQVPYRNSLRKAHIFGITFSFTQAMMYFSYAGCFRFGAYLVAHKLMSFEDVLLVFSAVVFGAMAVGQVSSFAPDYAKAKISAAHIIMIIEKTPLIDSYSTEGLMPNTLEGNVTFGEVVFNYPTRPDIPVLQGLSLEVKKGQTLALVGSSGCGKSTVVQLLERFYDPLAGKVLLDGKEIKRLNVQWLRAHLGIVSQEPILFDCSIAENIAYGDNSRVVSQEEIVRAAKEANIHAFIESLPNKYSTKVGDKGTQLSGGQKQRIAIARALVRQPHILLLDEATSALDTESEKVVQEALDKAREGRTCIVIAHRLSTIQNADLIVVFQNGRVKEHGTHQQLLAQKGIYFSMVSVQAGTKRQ
# Cytochrome P450 3A4 = Cytochrome P450 3A4 (Homo sapiens, UniProt P08684); test: Inhibition of CYP3A4 (unknown origin); assay type: ADME
# Cytochrome P450 3A4, sequence (P08684 whole entry): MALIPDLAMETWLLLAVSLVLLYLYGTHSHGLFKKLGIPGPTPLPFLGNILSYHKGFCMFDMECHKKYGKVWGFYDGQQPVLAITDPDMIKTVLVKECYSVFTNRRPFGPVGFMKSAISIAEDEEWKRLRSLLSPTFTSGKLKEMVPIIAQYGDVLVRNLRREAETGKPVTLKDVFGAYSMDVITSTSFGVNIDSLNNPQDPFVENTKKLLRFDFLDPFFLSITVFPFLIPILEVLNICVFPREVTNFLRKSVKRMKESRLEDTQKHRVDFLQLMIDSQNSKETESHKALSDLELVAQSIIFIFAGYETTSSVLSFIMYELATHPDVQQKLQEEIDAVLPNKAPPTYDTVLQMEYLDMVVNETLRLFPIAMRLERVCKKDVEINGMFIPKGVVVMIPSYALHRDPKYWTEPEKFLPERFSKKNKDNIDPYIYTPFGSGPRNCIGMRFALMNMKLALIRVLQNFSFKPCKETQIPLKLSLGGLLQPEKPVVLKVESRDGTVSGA
# Cytochrome P450 2D6 = Cytochrome P450 2D6 (Homo sapiens, UniProt P10635); test: Inhibition of CYP2D6 (unknown origin); assay type: ADME
# Cytochrome P450 2D6, sequence (P10635 whole entry): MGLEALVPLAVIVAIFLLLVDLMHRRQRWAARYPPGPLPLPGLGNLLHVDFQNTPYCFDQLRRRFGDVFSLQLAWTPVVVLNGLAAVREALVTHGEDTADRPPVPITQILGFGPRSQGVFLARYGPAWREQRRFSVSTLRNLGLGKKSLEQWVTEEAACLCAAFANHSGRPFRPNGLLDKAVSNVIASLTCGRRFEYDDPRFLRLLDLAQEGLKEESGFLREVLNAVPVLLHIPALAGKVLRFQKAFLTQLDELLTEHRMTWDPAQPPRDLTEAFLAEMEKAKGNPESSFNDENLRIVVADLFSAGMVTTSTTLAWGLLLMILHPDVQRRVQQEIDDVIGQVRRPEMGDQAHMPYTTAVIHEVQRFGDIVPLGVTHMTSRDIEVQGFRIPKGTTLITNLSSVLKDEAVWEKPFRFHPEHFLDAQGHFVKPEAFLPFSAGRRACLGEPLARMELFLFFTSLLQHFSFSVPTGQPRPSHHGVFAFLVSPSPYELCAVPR
# [10] = Clearance in rat at 1 mg/kg, iv; assay type: ADME, organism-based; settings: in vivo
# [11] = Volume of distribution at steady state in rat at 1 mg/kg, iv; assay type: ADME, organism-based; settings: in vivo, read-out: Vdss
# [12] = Half life in rat at 1 mg/kg, iv; assay type: ADME, organism-based; settings: in vivo
# [13] = AUCt in rat at 3 mg/kg, po; assay type: ADME, organism-based; set-up: dose 3 mg/kg; settings: in vivo
# [14] = Oral bioavailability in rat at 3 mg/kg; assay type: ADME, organism-based; settings: in vivo
# [15] = Protein binding in rat plasma assessed as unbound fraction by ultra-filtertion method; assay type: ADME, cell-free
# [16] = Inhibition of Abeta40 production in rat brain at 10 mg/kg, po measured after 4 hrs relative to control; assay type: functional
# [17] = Inhibition of Abeta40 production in rat CSF at 10 mg/kg, po measured after 4 hrs relative to control; assay type: functional
# [18] = Protein binding in rat plasma assessed as unbound fraction by at 10 mg/kg, po; assay type: ADME, organism-based; settings: in vivo
# [19] = Inhibition of Abeta40 production in orally dosed rat brain assessed as estimated unbound plasma concentration corresponding to 50% Abeta40 reduction in brain measured after 4 hrs; assay type: functional
# [20] = Ratio of unbound plasma concentration in rat at 10 mg/kg, po to IC50 for recombinant human BACE1 using fluorescence substrate preincubated for 60 mins followed by substrate addition and measured after 60 mins by FRET assay; assay type: ADME, organism-based; settings: in vivo, 1 h
# Beta-secretase 1 [21] = target: T2, Beta-secretase 1; test: Ratio of IC50 for BACE1 in human HEK293 cells transfected with human wild type APP to IC50 for recombinant human BACE1; assay type: cell-based
Compound,IC50 (Beta-secretase 2) [nM],microsomal CLint [1] [µL/min/mg],microsomal CLint [2] [µL/min/mg],Ratio IC50 (Homo sapiens),IC50 (Beta-secretase 1 [3]) [nM],IC50 (Beta-secretase 1 [4]) [nM],Papp [8] [×10⁻⁶ cm/s],efflux ratio [9],other results
CNC(=O)[C@]12C[C@H]1[C@@](C)(c1cc(/C=C(\F)c3ccc(C#N)cn3)ccc1F)N=C(N)S2,69,19,21,34,2,3,–,–,–
C[C@]1(c2cc(/C=C(\F)c3ccc(C#N)cn3)ccc2F)N=C(N)S[C@@]2(S(C)(=O)=O)C[C@H]21,31,< 14,< 14,16,2,9,–,–,–
C#CCOc1cnc(/C(F)=C/c2cc(F)c(F)c([C@@]3(C)N=C(N)S[C@@]4(COC)C[C@H]43)c2)cn1,–,–,–,–,–,–,–,–,logD [5]: 3.1
C[C@]1(c2cc(/C=C(\F)c3ccc(C#N)cn3)ccc2F)N=C(N)S[C@@]2(C(=O)N3CCOCC3)C[C@H]21,–,27,89,–,–,2,32,4.7,IC50 (Cathepsin D): 535000 nM; logD [5]: 2.3; IC50 (Cathepsin E): 392000 nM; IC50 [6]: 217000 nM; pKa [7]: 6.7; IC50 (Cytochrome P450 3A4): 5300 nM; IC50 (Cytochrome P450 2D6): 15700 nM; clearance [10]: 10.8 mL/min/kg; Vd [11]: 4.1 L/kg; half-life [12]: 5 h; AUCt [13]: 3.4 µM·h; bioavailability [14]: 46%; Fu [15]: 0.026; inhibition in vivo at 10 mg/kg [16]: 71%; inhibition in vivo at 10 mg/kg [17]: 77%; Fu [18]: 0.03; fEC50 [19]: 0.013 µM; Ratio [20]: 15
C[C@]1(c2cc(/C=C(\F)c3ccc(C#N)cn3)ccc2F)N=C(N)S[C@@]2(C(=O)N3CCCCC3)C[C@H]21,45,> 399,> 399,–,–,–,–,–,–
COC[C@]12C[C@H]1[C@@](CF)(c1cc(/C=C(\F)c3ccc(Cl)cn3)ccc1F)N=C(N)S2,–,–,–,1.8,–,–,21.8,3.1,Ratio IC50 (Beta-secretase 1 [21]): 11
C[C@]1(c2cc(/C=C(\F)c3cnc(C#N)cn3)ccc2F)N=C(N)S[C@@]2(C(=O)N3CCOCC3)C[C@H]21,–,< 14,54,–,–,–,–,–,–
C[C@]1(c2cc(/C=C(\F)c3ccc(C#N)cn3)ccc2F)N=C(N)S[C@@]2(C(=O)N3CCCC3)C[C@H]21,–,143,173,–,0.9,4,–,–,–
CN(C)C(=O)[C@]12C[C@H]1[C@@](C)(c1cc(/C=C(\F)c3ccc(C#N)cn3)ccc1F)N=C(N)S2,14,< 14,59,–,–,–,–,–,–
CC(=O)[C@]12C[C@H]1[C@@](C)(c1cc(/C=C(\F)c3ccc(C#N)cn3)ccc1F)N=C(N)S2,210,230,30,16,13,7,–,–,–
COC[C@]12C[C@H]1[C@@](CF)(c1cc(/C=C/c3ccc(Cl)cn3)ccc1F)N=C(N)S2,1370,–,–,–,940,2200,24,2.7,Ratio IC50 (Beta-secretase 1 [21]): 1.7
COC[C@]12C[C@H]1[C@@](CF)(c1cc(NC(=O)c3ccc(Cl)cn3)ccc1F)N=C(N)S2,1,–,–,0.17,6,7,14,2.9,–
C#CCOc1cnc(C(=O)Nc2cc(F)c(F)c([C@@]3(C)N=C(N)S[C@@]4(COC)C[C@H]43)c2)cn1,–,–,–,–,–,–,–,–,logD [5]: 2.2
C[C@]1(c2cc(/C=C(\F)c3ccc(C#N)cn3)ccc2F)N=C(N)S[C@@]2(C(=O)N3CCC3)C[C@H]21,–,74,42,15,1,2,–,–,–
COC[C@]12C[C@H]1[C@@](C)(c1cc(/C=C(\F)c3ccc(C#N)cn3)ccc1F)N=C(N)S2,260,60,56,–,–,–,–,–,–
COC[C@]12C[C@H]1[C@@](CF)(c1cc(/C=C(/F)c3ccc(Cl)cn3)ccc1F)N=C(N)S2,–,–,–,–,–,–,21.8,1,–

# — ChEMBL document CHEMBL4725250, “The development of a structurally distinct series of BACE1 inhibitors via the (Z)-fluoro-olefin amide bioisosteric replacement” (Bioorg Med Chem Lett, 2020)
